According to patent publication US20110281928A1, “Process for the preparation of zofenopril and its pharmaceutically acceptable salts thereof” (GLENMARK GENERICS LTD, priority 2009, published 2011):
Counter-ions that a name gives are not always drawn.

Tests used:
Assay type in all cases: physicochemical
[1] = Specific surface area by B.E.T. nitrogen absorption
From the text: Specific surface area is defined in units of square meters per gram (m^2/g). It is usually measured by nitrogen absorption analysis. In this analysis, nitrogen is absorbed on the surface of the substance. The amount of the absorbed nitrogen (as measured during the absorption or the subsequent desorption process) is related to the surface area via a formula known as the B. ET. formula. BET Surface Area Analyser Model SAA-2000, specifically designed for BET_Surface Area Analysis.
The Specific Surface Area is expressed in meters square per gram of a sample. It is a measure of area covered by Nitrogen gas adsorbed in a mono-layer form.

[2] = Solubility in organic solvents (statement)
[3] = Bulk and tapped density; conditions: Example 5 product
[4] = Particle size distribution by laser diffraction
From the text: The D10, D50, and D90 values are useful ways for indicating a particle size distribution. D90 is a size value where at least 90 percent of the particles have a size smaller than the stated value. Likewise D10 refers to 10 percent of the particles having a size smaller than the stated value. D50 refers to at least 50 percent of the particles having a size smaller than the stated value and D [4,3] value refers to a mean particle size. Methods for determining D10, D50, D90 and D [4,3] include those using laser light diffraction with equipment sold by Malvern Instruments ltd.
As used herein, “crystalline particles” means any combination of single crystals, aggregates and agglomerates. As used herein “Particle Size Distribution (P.S.D.)” means the cumulative volume size distribution of equivalent spherical diameters as determined by laser diffraction at 1 bar dispersive pressure in a SympatecHelos equipment. “Mean particle size distribution, i.e., d (0.5)” correspondingly, means the median of said particle size distribution.

Which results are given for `C[C@H](CSC(=O)c1ccccc1)C(=O)N1C[C@@H](Sc2ccccc2)C[C@H]1C(=O)O` [zofenopril calcium, (4S)-N-[3-(Benzoylsulfanyl)-2(S)-methylpropionyl]-4-(phenylsulfanyl)-L-proline calcium salt]?
Specific surface area by B.E.T ([1]; Example 5 product): 14.13 m^2/g; Specific surface area, as measured by B.E.T. ([1]; crystal particles, description): about 14.13 m^2/gm; Solubility in organic solvents [2]: insoluble; Bulk density (Tapped) [3]: 0.282 gm/ml; Bulk density (untapped) [3]: 0.201 gm/ml; Particle size distribution d 10 ([4]; Example 5 product): 3.902 μ; Particle size distribution d 50 ([4]; Example 5 product): 12.088 μ; Particle size distribution d90 ([4]; Example 5 product): 33.858 μ; Mean particle size distribution d (0.5) ([4]; crystal particles, description): 12.088 μm; Particle size distribution d (0.1) ([4]; crystal particles, description): 3.902 μm; Particle size distribution d (0.9) ([4]; crystal particles, description): 33.858 μm
